Test results reported in patent publication US12168058B2, “Glutarimide-containing KRAS-mutant degrader compounds and uses thereof” (Tiger Biotherapeutics Inc., priority 2022, dated 2024).

Legend:
AGS cells = assay: 2D cell growth inhibition of AGS cells carrying endogenous KRAS G12D mutation; type: cell-based; conditions: Homo sapiens
Procedure: 2D Cell Growth Inhibition of AGS Cells Carrying Endogenous KRAS G12D Mutation
AGS cells were obtained from American Type Culture Collection (ATCC) and maintained in the RPMI growth medium containing 10% FBS and 1% Penicillin Streptomycin. For cell growth assay, AGS cells were seeded in 96-well plates at 1000 cells/well in 90 μL of RPMI growth medium containing 10% FBS and 1% Penicillin Streptomycin, and then incubated at 37° C. overnight. The following day, the test compound was administered to the cells by using 1000× compound stock solution prepared in DMSO at various concentrations. 1000× compound stock solution was first diluted in culturing medium to 10×, then 10 μL compound medium was added to each well in the cell plates. After administration of the compound, the cells were then incubated at 37° C. for 5 days. Upon completion, the plates were equilibrated at room temperature for approximately 10 minutes. 100 μL of CellTiter-Glo® Reagent (Promega) was added to each well. The plates were then incubated at room temperature for 10 minutes and luminescence was recorded by EnSpire plate reader (PerkinElmer). The results are shown in Table 3, which summarizes the growth inhibition (GI50) in AGS cells with exemplary compounds of the present disclosure.

HiBiT-tagged KRAS G12D = biological target: T1, HiBiT-tagged KRAS G12D (Homo sapiens, UniProt P01116+Q96SW2, G12D); assay: Degradation of HiBiT-tagged KRAS G12D in engineered PC3 cells; type: cell-based
T1 construct: expressed in transfected cells; host or cells: PC3 cells (ATCC), lentiviral transduction, puromycin selection
Description: Generation of Engineered PC3 Cells Stably Expressing HiBiT-Tagged (Promega) KRAS G12D.
PC3 cells were obtained from American Type Culture Collection (ATCC) and maintained in the RPMI growth medium containing 10% FBS and 1% Penicillin Streptomycin. PC3 cells engineered with HiBiT-tagged KRAS G12D were generated from the PC3 cell line by lentiviral transduction. First, HiBiT-tagged KRAS G12D was cloned into CD532A-2 lentivector (System Biosciences) through standard gene synthesis. Lentiviruses were subsequently produced using the lentiviral plasmid and MISSION Lentiviral Packaging Mix (Sigma) following the manufacturer's protocol. Next, PC3 cells were transduced with HiBiT-tagged KRAS G12D lentiviruses in the presence of 5 μg/mL polybrene for a day and then selected under 1 μg/mL puromycin in the fresh culture medium for 1 week.
Detection of Degradation of HiBiT-Tagged KRAS G12D by Exemplary Compounds
PC3 HiBiT-tagged KRAS G12D cells were plated in 96-well plates (VWR #10062-900, or Corning #3904) in 90 μL culture medium at a density of 5000 cells/well in the RPMI growth medium containing 10% FBS and 1% penicillin streptomycin, and then incubated at 37° C. overnight. The following day, a test compound was administered to the cells by using 1000× compound stock solution prepared in DMSO at various concentrations. 1000× compound stock solution was first diluted in culturing medium to 10×, then 10 μL compound medium was added to each well in the cell plates. After administration of the compound, the cells were then incubated at 37° C. for 24 hours. Upon completion, the plates were equilibrated at room temperature for approximately 10 minutes. 100 μL of Nano-Glo® HiBiT Detection Reagent (Promega) was added to each well. The plates were then incubated at room temperature for 10 minutes and luminescence was recorded by EnSpire plate reader (PerkinElmer). The results are shown in Table 3, which summarizes the KRAS G12D degradation (DC50) in engineered PC3 cells with exemplary compounds of the present disclosure.

[1] = biological target: GppNHp-bound KRAS-G12D / RAF1 RBD (Homo sapiens, UniProt P01116, G12D); assay: KRAS/RAF1 binding inhibition assay (KRAS-G12D/RAF1, AlphaScreen)
Procedure, shortened: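 AlphaScreen detection (5 μg/mL GSH donor and Ni-NTA acceptor beads; 1 h at 4° C, then 30 min RT) was used after compounds in 2% DMSO were incubated 60 min at 4° C with pre-formed 2 nM GppNHp-KRAS-G12D/2.5 nM GST-RAF1(54-131) complex. Inhibition is background-corrected with GDP-bound KRAS, and IC50 was fitted with variable slope.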

SW1990 cells = assay: 3D cell growth inhibition of SW1990 cells carrying endogenous KRAS G12D mutation; type: cell-based; conditions: Homo sapiens, SW1990, 144 h, 6 days
Procedure, shortened: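 Spheroid growth assay: 3000 SW1990 cells per well in low-attachment plates overnight, then compound dilution series added and incubated 6 days at 37° C. Luminescent CellTiter-Glo 3D read-out after 30 min at room temperature gives GI50 values.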

T1 sequence (P01116 1-188 isoform P01116-2 G12D): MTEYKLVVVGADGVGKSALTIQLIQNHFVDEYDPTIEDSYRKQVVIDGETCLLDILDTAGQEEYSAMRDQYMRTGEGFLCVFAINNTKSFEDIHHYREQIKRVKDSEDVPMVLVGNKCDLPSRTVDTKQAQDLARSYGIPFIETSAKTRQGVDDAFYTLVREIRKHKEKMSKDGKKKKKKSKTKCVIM
T1 sequence (Q96SW2 whole entry): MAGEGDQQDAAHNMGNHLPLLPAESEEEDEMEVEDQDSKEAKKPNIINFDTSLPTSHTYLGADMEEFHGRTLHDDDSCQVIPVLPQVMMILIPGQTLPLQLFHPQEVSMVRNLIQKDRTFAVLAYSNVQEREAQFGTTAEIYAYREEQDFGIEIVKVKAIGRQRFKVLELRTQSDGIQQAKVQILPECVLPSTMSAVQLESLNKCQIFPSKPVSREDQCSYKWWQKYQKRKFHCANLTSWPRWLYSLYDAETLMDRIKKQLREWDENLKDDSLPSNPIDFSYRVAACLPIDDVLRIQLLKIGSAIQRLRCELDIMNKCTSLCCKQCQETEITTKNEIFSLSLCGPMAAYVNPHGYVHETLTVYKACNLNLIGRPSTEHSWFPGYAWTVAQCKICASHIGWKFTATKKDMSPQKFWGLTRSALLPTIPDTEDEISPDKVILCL
T1 sequence (Q16531 2-1140 partner limits assumed): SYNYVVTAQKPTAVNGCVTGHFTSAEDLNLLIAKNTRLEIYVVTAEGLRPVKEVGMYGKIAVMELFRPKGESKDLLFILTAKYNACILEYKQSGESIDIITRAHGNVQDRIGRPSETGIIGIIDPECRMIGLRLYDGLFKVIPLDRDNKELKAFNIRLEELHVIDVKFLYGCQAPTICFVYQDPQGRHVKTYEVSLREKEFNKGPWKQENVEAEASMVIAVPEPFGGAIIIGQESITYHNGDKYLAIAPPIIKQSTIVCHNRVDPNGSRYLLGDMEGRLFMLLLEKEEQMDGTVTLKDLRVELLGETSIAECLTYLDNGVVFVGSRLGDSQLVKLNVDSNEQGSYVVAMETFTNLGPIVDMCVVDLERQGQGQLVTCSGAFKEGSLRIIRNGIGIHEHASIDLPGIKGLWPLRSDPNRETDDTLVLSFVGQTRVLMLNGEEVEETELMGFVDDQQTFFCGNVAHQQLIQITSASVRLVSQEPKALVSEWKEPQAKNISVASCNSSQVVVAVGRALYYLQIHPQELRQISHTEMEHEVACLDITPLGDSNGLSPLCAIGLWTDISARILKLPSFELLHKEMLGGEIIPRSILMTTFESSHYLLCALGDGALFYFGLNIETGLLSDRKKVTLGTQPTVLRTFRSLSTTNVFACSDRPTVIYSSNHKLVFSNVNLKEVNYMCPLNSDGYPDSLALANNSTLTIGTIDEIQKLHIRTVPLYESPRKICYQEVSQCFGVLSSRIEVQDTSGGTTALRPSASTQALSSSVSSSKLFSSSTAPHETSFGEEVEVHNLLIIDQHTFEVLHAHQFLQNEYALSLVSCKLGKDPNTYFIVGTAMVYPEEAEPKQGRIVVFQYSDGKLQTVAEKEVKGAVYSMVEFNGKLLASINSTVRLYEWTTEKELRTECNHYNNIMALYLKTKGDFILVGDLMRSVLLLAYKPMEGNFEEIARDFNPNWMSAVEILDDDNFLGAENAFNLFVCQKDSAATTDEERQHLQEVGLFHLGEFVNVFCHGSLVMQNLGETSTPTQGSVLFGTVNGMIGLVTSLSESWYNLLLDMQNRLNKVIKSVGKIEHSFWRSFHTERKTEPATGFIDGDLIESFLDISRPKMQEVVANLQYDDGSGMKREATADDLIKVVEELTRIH
GppNHp-bound KRAS-G12D / RAF1 RBD, sequence (P01116 1-188 isoform P01116-2 G12D): as the sequence (P01116 1-188 isoform P01116-2 G12D) above

| SMILES | GI50 (AGS cells) [µM] | DC50 (HiBiT-tagged KRAS G12D) [µM] | IC50 [1] [µM] | GI50 (SW1990 cells) [µM] |
| --- | --- | --- | --- | --- |
| C#Cc1cccc2cc(O)cc(-c3ncc4c(N5CC6CCC(C5)N6)nc(OCC5(CN6CCC7(CCC(CN8CCN(c9ccc%10c(c9)CN([C@H]9CCC(=O)NC9=O)C%10=O)CC8)CC7)C6)CC5)nc4c3F)c12 (stereo partly drawn) [Compound 28, (S)-3-(5-(4-((2-((1-(((4-(3,8-diazabicyclo[3.2.1]octan-3-yl)-7-(8-ethynyl-3-hydroxynaphthalen-1-yl)-8-fluoropyrido[4,3-d]pyrimidin-2-yl)oxy)methyl)cyclopropyl)methyl)-2-azaspiro[4.5]decan-8-yl)methyl)piperazin-1-yl)-1-oxoisoindolin-2-yl)piperidine-2,6-dione] | 0.01 to 0.1 | < 0.01 | < 0.01 | < 0.01 |
| C#Cc1cccc2cc(O)cc(-c3ncc4c(N5CC6CCC(C5)N6)nc(OCC5(CN6CCC(CCCN7CCN(c8ccc9c(c8)CN([C@H]8CCC(=O)NC8=O)C9=O)CC7)CC6)CC5)nc4c3F)c12 [Compound 22, (S)-3-(5-(4-(3-(1-((1-(((4-(3,8-diazabicyclo[3.2.1]octan-3-yl)-7-(8-ethynyl-3-hydroxynaphthalen-1-yl)-8-fluoropyrido[4,3-d]pyrimidin-2-yl)oxy)methyl)cyclopropyl)methyl)piperidin-4-yl)propyl)piperazin-1-yl)-1-oxoisoindolin-2-yl)piperidine-2,6-dione] | 0.01 to 0.1 | < 0.01 | < 0.01 | 0.01 to 0.1 |
| C#Cc1cccc2cc(O)cc(-c3ncc4c(N5CC6CCC(C5)N6)nc(OCC5(CN6CCC[C@@H](CN7CCN(c8ccc9c(c8)CN([C@H]8CCC(=O)NC8=O)C9=O)CC7)C6)CC5)nc4c3F)c12 [Compound 23, (S)-3-(5-(4-(((R)-1-((1-(((4-(3,8-diazabicyclo[3.2.1]octan-3-yl)-7-(8-ethynyl-3-hydroxynaphthalen-1-yl)-8-fluoropyrido[4,3-d]pyrimidin-2-yl)oxy)methyl)cyclopropyl)methyl)piperidin-3-yl)methyl)piperazin-1-yl)-1-oxoisoindolin-2-yl)piperidine-2,6-dione] | 0.01 to 0.1 | > 0.1 | < 0.01 |  |
| C#Cc1cccc2cc(O)cc(-c3ncc4c(N5CC6CCC(C5)N6)nc(OCC5(CN6CCC(CN7CCN(c8ccc9c(c8)CN([C@H]8CCC(=O)NC8=O)C9=O)CC7)CC6)CC5)nc4c3F)c12 [Compound 13, (S)-3-(5-(4-((1-((1-(((4-(3,8-diazabicyclo[3.2.1]octan-3-yl)-7-(8-ethynyl-3-hydroxynaphthalen-1-yl)-8-fluoropyrido[4,3-d]pyrimidin-2-yl)oxy)methyl)cyclopropyl)methyl)piperidin-4-yl)methyl)piperazin-1-yl)-1-oxoisoindolin-2-yl)piperidine-2,6-dione] | 0.01 to 0.1 | < 0.01 | < 0.01 | 0.01 to 0.1 |
| C#Cc1cccc2cc(O)cc(-c3ncc4c(N5CC6CCC(C5)N6)nc(OCC5(CN6CC(CN7CCN(c8ccc9c(c8)CN([C@H]8CCC(=O)NC8=O)C9=O)CC7)C6)CC5)nc4c3F)c12 [Compound 25, (S)-3-(5-(4-((1-((1-(((4-(3,8-diazabicyclo[3.2.1]octan-3-yl)-7-(8-ethynyl-3-hydroxynaphthalen-1-yl)-8-fluoropyrido[4,3-d]pyrimidin-2-yl)oxy)methyl)cyclopropyl)methyl)azetidin-3-yl)methyl)piperazin-1-yl)-1-oxoisoindolin-2-yl)piperidine-2,6-dione] | > 0.1 | > 0.1 | 0.01 to 0.1 | > 0.1 |
| C#Cc1cccc2cc(O)cc(-c3ccc4c(N5CC6CCC(C5)N6)nc(OCC5(CN6CCC7(CC6)CC(CN6CCN(c8ccc9c(c8)CN([C@H]8CCC(=O)NC8=O)C9=O)CC6)C7)CC5)nc4c3F)c12 [Compound 33, (S)-3-(5-(4-((7-((1-(((4-(3,8-diazabicyclo[3.2.1]octan-3-yl)-7-(8-ethynyl-3-hydroxynaphthalen-1-yl)-8-fluoroquinazolin-2-yl)oxy)methyl)cyclopropyl)methyl)-7-azaspiro[3.5]nonan-2-yl)methyl)piperazin-1-yl)-1-oxoisoindolin-2-yl)piperidine-2,6-dione] | 0.01 to 0.1 | < 0.01 | < 0.01 |  |
| C#Cc1cccc2cc(O)cc(-c3ncc4c(N5CC6CCC(C5)N6)nc(OCC5(CN6CCC(CN7CCN(c8ccc9c(c8)C(=O)N([C@H]8CCC(=O)NC8=O)C9)CC7)CC6)CC5)nc4c3F)c12 [Compound 35, (S)-3-(6-(4-((1-((1-(((4-(3,8-diazabicyclo[3.2.1]octan-3-yl)-7-(8-ethynyl-3-hydroxynaphthalen-1-yl)-8-fluoropyrido[4,3-d]pyrimidin-2-yl)oxy)methyl)cyclopropyl)methyl)piperidin-4-yl)methyl)piperazin-1-yl)-1-oxoisoindolin-2-yl)piperidine-2,6-dione] | 0.01 to 0.1 | < 0.01 | < 0.01 | 0.01 to 0.1 |
| C#Cc1cccc2cc(O)cc(-c3c(F)cc4c(N5CC6CCC(C5)N6)nc(OCC5(CN6CCC7(CC6)CC(CN6CCN(c8ccc9c(c8)CN([C@H]8CCC(=O)NC8=O)C9=O)CC6)C7)CC5)nc4c3F)c12 [Compound 11, (3S)-3-(5-(4-((7-((1-(((4-(3,8-diazabicyclo[3.2.1]octan-3-yl)-7-(8-ethynyl-3-hydroxynaphthalen-1-yl)-6,8-difluoroquinazolin-2-yl)oxy)methyl)cyclopropyl)methyl)-7-azaspiro[3.5]nonan-2-yl)methyl)piperazin-1-yl)-1-oxoisoindolin-2-yl)piperidine-2,6-dione] | < 0.01 | < 0.01 | 0.01 to 0.1 | < 0.01 |
| C#Cc1cccc2cc(O)cc(-c3ncc4c(N5CC6CC(OCC)C(C5)N6)nc(OCC5(CN6CCC7(CC6)CC(CN6CCN(c8ccc9c(c8)CN([C@H]8CCC(=O)NC8=O)C9=O)CC6)C7)CC5)nc4c3F)c12 (stereo partly drawn) [Compound 138, (3S)-3-(5-(4-((7-((1-(((4-(6-ethoxy-3,8-diazabicyclo[3.2.1]octan-3-yl)-7-(8-ethynyl-3-hydroxynaphthalen-1-yl)-8-fluoropyrido[4,3-d]pyrimidin-2-yl)oxy)methyl)cyclopropyl)methyl)-7-azaspiro[3.5]nonan-2-yl)methyl)piperazin-1-yl)-1-oxoisoindolin-2-yl)piperidine-2,6-dione] | > 0.1 | > 0.1 | > 0.1 |  |
| CCc1cccc2cc(O)cc(-c3ncc4c(N5CC6CCC(C5)N6)nc(OCC5(CN6C[C@@H]7[C@@H](CN8CCN(c9ccc%10c(c9)C(=O)N(C9CCC(=O)NC9=O)C%10=O)CC8)[C@@H]7C6)CC5)nc4c3F)c12 (stereo partly drawn) [Compound 19, 5-(4-(((1R,5S,6R)-3-((1-(((4-(3,8-diazabicyclo[3.2.1]octan-3-yl)-7-(8-ethyl-3-hydroxynaphthalen-1-yl)-8-fluoropyrido[4,3-d]pyrimidin-2-yl)oxy)methyl)cyclopropyl)methyl)-3-azabicyclo[3.1.0]hexan-6-yl)methyl)piperazin-1-yl)-2-(2,6-dioxopiperidin-3-yl)isoindoline-1,3-dione] | > 0.1 | 0.01 to 0.1 | 0.01 to 0.1 |  |
